The record followed here is patent US12030876B2, “Aryl hydrocarbon receptor (AHR) agonists and uses thereof” (Ikena Oncology, Inc., priority 2019, dated 2024).

The term EC50 denotes the concentration needed to bring the measured effect to its halfway point.

Structures are written as SMILES. Like-named read-outs stand apart in the source and are kept apart here.

For assay [1], the target named is T1, AHR (Homo sapiens, UniProt P35869).
T1 construct: endogenous in cells; host or cells: HepG2 (human), transfected with a DRE-luciferase reporter only
T1 sequence (P35869 11-848): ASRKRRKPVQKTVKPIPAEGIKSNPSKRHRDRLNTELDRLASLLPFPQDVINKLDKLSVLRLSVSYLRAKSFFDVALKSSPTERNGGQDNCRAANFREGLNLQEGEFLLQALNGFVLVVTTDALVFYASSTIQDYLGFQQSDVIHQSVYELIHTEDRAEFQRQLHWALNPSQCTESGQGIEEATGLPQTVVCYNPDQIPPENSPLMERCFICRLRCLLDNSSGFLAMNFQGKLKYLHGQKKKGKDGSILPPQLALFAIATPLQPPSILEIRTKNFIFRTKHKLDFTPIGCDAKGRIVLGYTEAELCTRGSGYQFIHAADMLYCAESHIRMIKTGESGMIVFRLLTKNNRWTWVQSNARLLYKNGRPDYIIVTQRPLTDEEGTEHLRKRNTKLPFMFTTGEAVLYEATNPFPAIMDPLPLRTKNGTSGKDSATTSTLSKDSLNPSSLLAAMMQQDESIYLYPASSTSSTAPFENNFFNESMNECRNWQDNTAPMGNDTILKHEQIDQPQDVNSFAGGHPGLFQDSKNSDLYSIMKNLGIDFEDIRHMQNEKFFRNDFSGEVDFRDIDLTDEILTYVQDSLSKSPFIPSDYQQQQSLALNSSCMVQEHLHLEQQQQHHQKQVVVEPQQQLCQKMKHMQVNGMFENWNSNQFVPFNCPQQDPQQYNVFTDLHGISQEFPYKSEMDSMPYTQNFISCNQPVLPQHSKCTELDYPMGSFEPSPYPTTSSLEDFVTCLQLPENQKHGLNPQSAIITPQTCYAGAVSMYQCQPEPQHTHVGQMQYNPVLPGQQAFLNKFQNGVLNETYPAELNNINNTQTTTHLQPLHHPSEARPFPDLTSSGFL
In words: DRE-Luciferase Reporter Assay, HepG2 (agonist). The settings on record: read-out: DRE-Luc HepG2 - Agonist: Average EC50. The class given is cell-based. The procedure: DRE-Luciferase Reporter Assay
AHR binds to Dioxin Responsive Elements (DRE) upstream of genes that it activates. One measure of AHR activity is activation of a reporter gene, such as luciferase, downstream of one or multiple DRE elements. Luciferase activity reflects activation and inhibition of AHR in the cells expressing this reporter.
Murine Hepa1-6 or Hepa-1c1c7 or other murine cell line with a DRE-luciferase reporter either stably or transiently transfected are plated in media in plates (96-well, 384-well or other plates) and incubated overnight at 37 C in a CO2 incubator. Likewise, human HepG2 or other human cell line with a DRE-luciferase reporter either stably or transiently transfected are plated in media in plates (96-well, 384-well or other plates) and incubated overnight at 37 C in a CO2 incubator.
(§1) The next day, an AHR agonist compound is added. Cells are incubated for 6, 16 or 24 hours or another time point and then lysed for determination of luciferase activity as a read-out of the AHR activation. Luciferase can be measured with a commercial kit such as the Promega Luciferase kit or any kit or reagents that provide the luciferin substrate for measuring luciferase activity. The level of luciferase with only activating ligand (e.g. such as TCDD, kynurenine, ITE (2-(1H-indole-3-ylcarbonyl)-4-thiazolecarboxylic methyl ester), VAF347, BNF (beta-naphthoflavone), ICZ (6-formylindolo(3,2-b) carbazole or other AHR ligands) added is the maximum signal while the luciferase with no ligand is the minimum signal. EC50s can be determined as the concentration which activates half of the maximum luciferase activity.
(In general: A reporter such as luciferase makes a cellular process visible.)

In assay [2] the target is T2, AHR (Mus musculus, UniProt P30561).
T2 sequence (P30561 1-848 F348L/P471L): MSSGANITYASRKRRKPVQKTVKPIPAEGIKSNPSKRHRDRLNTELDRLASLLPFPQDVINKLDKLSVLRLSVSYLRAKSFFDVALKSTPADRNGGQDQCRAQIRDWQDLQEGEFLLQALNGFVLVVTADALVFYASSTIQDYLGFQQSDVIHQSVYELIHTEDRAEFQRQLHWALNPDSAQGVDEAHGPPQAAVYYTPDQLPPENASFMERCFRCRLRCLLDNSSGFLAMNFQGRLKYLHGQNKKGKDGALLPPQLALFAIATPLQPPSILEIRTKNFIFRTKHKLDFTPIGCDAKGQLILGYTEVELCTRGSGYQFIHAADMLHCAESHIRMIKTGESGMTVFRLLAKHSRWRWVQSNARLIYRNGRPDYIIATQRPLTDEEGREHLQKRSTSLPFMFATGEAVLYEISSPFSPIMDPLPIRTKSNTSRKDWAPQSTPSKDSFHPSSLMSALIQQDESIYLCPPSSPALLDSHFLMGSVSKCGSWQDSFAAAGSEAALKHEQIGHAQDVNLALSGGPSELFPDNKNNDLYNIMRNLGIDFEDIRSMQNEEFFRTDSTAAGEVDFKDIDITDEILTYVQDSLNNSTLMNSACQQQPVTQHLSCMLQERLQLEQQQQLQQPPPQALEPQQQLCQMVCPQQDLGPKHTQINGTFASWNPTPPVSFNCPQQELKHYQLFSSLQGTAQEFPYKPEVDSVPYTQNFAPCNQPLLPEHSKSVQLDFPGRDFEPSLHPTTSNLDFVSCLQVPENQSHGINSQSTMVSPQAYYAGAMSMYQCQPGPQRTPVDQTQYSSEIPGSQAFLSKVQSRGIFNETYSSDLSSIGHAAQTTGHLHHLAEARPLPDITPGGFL
Put plainly: P450 CYP1A1 Luciferase Assay, Hepa1.6 (agonist). In kind it is cell-based, murine. Particulars: Hepa1.6, Table 2. The procedure:
P450 CYP1A1 Luciferase Assay
AHR binds to Dioxin Responsive Elements (DRE) upstream of genes that it activates. One measure of AHR activity is P450 CYP1A1 protein levels determined by measuring CYP1A1 enzyme activity using a luminogenic CYP1A1 luciferin-based substrate. Luciferase activity will reflect CYP1A1 activity resulting from activation of AHR in the cells.
Murine Hepa1-6 or Hepa-1c1c7 or other murine cell line, human HepG2 or other human cell line are plated in media (96-well, 384-well or other plates) and incubated overnight at 37 C in a CO2 incubator.
as §1, with “lysed and incubated with a CYP1A1 luciferase-based substrate (e.g. Luciferin-CEE)” for “lysed”, “3, 6, or 12 hours of another time point. Determination” for “determination”, “CYP1A1 enzyme activity” for “the AHR activation. Luciferase”, “P450 Glo CYP1A1 detection reagent” for “Luciferase kit”, “provide” for “provide the luciferin substrate”

Take `FC(F)(F)c1cccc(-c2csc(Nc3cccc(Cl)c3)n2)c1` [I-32]: the EC50 is 10 to 100 nM in assay [1] (HepG2, Table 2) and > 1000 nM in assay [2]. As to `N=C(N)c1cccc(-c2csc(Nc3cccc(C(F)(F)F)c3)n2)c1` [I-44], the EC50 in assay [1] (HepG2, Table 2) is 100 to 1000 nM; in assay [2], > 1000 nM. The corresponding values for `FC(F)(F)c1cccc(Nc2nc(-c3ccc(Cl)cc3)cs2)c1` [Compound P-10] are 10 to 100 nM and > 1000 nM. The like results for `FC(F)(F)c1ccc(Nc2nc(-c3cccc(Cl)c3)cs2)cc1` [I-21] were, in that order, < 10 nM and > 1000 nM.

As for `FC(F)(F)c1cccc(Nc2nc(-c3cccc(Cl)c3)ns2)c1` [I-58], the EC50 in assay [1] (HepG2, Table 2) is < 10 nM; in assay [2] it was > 1000 nM. The corresponding values for `Oc1cccc(-c2csc(Nc3cccc(C(F)(F)F)c3)n2)c1` [I-18] are < 10 nM and > 1000 nM. The corresponding values for `C[N+](C)(CCO)CCCNC(=O)N(c1cccc(C(F)(F)F)c1)c1nc(-c2cccc(Cl)c2)cs1` [I-26] are 10 to 100 nM and > 1000 nM. For `Cc1sc(Nc2cccc(C(F)(F)F)c2)nc1-c1cccc(Cl)c1` [I-27], the EC50 in assay [1] (HepG2, Table 2) was 10 to 100 nM; in assay [2], > 1000 nM. Regarding `C[N+](C)(C)CCC(=O)Nc1cccc(-c2csc(Nc3cccc(C(F)(F)F)c3)n2)c1` [I-34], the 50% effective concentration (EC50) in assay [1] (HepG2, Table 2) was 100 to 1000 nM; in assay [2], > 1000 nM.

On to `FC(F)(F)c1cccc(Nc2nc(-c3cccc(Br)c3)cs2)c1` [Compound P-4], for which the 50% effective concentration (EC50) in assay [1] (HepG2, Table 2) was < 10 nM; in assay [2] it was 100 to 1000 nM.

Turning to `Cc1c(-c2csc(Nc3cccc(C(F)(F)F)c3)n2)cccc1[N+](=O)[O-]` [I-15], the EC50 was < 10 nM in assay [1] (HepG2, Table 2) and > 1000 nM in assay [2].

For `FC(F)(F)c1cccc(Nc2cc(-c3cccc(Cl)c3)cs2)c1` [I-61], the EC50 in assay [1] (HepG2, Table 2) is 100 to 1000 nM; in assay [2], > 1000 nM. On to `O=[N+]([O-])c1ccccc1-c1csc(Nc2cccc(C(F)(F)F)c2)n1` [I-49], for which the EC50 is > 1000 nM in assay [1] (HepG2, Table 2) and > 1000 nM in assay [2]. As to `[O-][n+]1cccc(-c2csc(Nc3cccc(C(F)(F)F)c3)n2)c1` [I-9], the concentration giving a half-maximal response (EC50) was < 10 nM in assay [1] (HepG2, Table 2) and 10 to 100 nM in assay [2].

For `O=[N+]([O-])c1ccc(-c2csc(Nc3cccc(C(F)(F)F)c3)n2)cc1` [Compound P-3], the concentration for a half-maximal effect (EC50) in assay [1] (HepG2, Table 2) is < 10 nM; in assay [2] it was > 1000 nM. As for `FC(F)(F)c1cncc(Nc2nc(-c3cccc(Cl)c3)cs2)c1` [I-5], the EC50 in assay [1] (HepG2, Table 2) is < 10 nM; in assay [2] it was > 1000 nM. With `FC(F)(F)c1cccc(Nc2nc(-c3ccc(Cl)c(Cl)c3)cs2)c1` [I-12], the EC50 in assay [1] (HepG2, Table 2) was < 10 nM; in assay [2], > 1000 nM. In the case of `CN(C)c1cccc(-c2csc(Nc3cccc(C(F)(F)F)c3)n2)c1` [I-30], the EC50 in assay [1] (HepG2, Table 2) fell in the range of 10 to 100 nM; in assay [2], 100 to 1000 nM. The corresponding values for `C[N+](C)(CCO)CCOC(=O)N(c1cccc(C(F)(F)F)c1)c1nc(-c2cccc(Cl)c2)cs1` [I-31] are 10 to 100 nM and > 1000 nM. The corresponding values for `COc1ccc(-c2csc(Nc3cccc(C(F)(F)F)c3)n2)cc1` [I-46] are > 1000 nM and > 1000 nM. The like results for `FC(F)(F)c1cccc(Nc2ncc(-c3cccc(Cl)c3)o2)c1` [I-59] were, in that order, < 10 nM and > 1000 nM. For the compound `C[N+]1(C)CCN(C(=O)c2cccc(-c3csc(Nc4cccc(C(F)(F)F)c4)n3)c2)CC1` [I-53], the EC50 is > 1000 nM in assay [1] (HepG2, Table 2) and > 1000 nM in assay [2].

Take `C[N+](C)(CCNC(=O)N(c1cccc(C(F)(F)F)c1)c1nc(-c2cccc(Cl)c2)cs1)CCNC(=O)N(c1cccc(C(F)(F)F)c1)c1nc(-c2cccc(Cl)c2)cs1` [I-2]: the EC50 was < 10 nM in assay [1] (HepG2, Table 2) and 100 to 1000 nM in assay [2]. As to `C[N+](C)(C)CCCNC(=O)N(c1cccc(C(F)(F)F)c1)c1nc(-c2ccc[n+]([O-])c2)cs1` [I-110], in assay [1] (HepG2, Table 3), the EC50 is > 1000 nM. Same read-out and setting: the figure for `O=[N+]([O-])c1cccc(-c2csc(Nc3cncc(C(F)(F)F)c3)n2)c1` [I-96] is < 10 nM.
